Test results from patent US10759793B2, “2-(pyrazolopyridin-3-yl)pyrimidine derivatives as JAK inhibitors” (ALMIRALL, S.A., priority 2015, dated 2020).
pIC50: −log10 of the molar value.

How the values were obtained:
Format in all cases: biochemical
JAK3 = JAK3 (Homo sapiens (Human), UniProt P52333); assay: In vitro JAK kinase assay (TR-FRET), JAK3; conditions: catalytic domain aa 795-1124, GST-fusion; ATP 0.6 μM; peptide 140 nM; 30 minutes at room temperature
Procedure, shortened: (§1)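 Each human JAK enzyme assayed on biotinylated poly(GT) peptide substrate, reaction 30 min at room temperature. Phosphorylation detected by TR-FRET after a 3 h detection incubation.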

JAK2 = JAK2 (Homo sapiens (Human), UniProt O60674); assay: In vitro JAK kinase assay (TR-FRET), JAK2; conditions: catalytic domain aa 826-1132, GST-fusion; ATP 0.2 μM; peptide 20 nM; 30 minutes at room temperature
Sequence of JAK2 (O60674 826-1132): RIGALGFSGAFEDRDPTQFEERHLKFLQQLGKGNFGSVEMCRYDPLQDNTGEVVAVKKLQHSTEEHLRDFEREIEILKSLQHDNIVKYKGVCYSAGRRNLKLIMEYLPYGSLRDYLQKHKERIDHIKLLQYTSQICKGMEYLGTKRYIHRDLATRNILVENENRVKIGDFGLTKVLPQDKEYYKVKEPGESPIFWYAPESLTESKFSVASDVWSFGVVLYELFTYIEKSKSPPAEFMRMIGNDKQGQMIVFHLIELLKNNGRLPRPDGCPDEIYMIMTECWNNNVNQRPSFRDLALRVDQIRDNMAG
Procedure, shortened: as §1

JAK1 = JAK1 (Homo sapiens (Human), UniProt P23458); assay: In vitro JAK kinase assay (TR-FRET), JAK1; conditions: catalytic domain aa 850-1154, GST-fusion; ATP 3 μM; peptide 60 nM; 30 minutes at room temperature
Sequence of JAK1 (P23458 850-1154): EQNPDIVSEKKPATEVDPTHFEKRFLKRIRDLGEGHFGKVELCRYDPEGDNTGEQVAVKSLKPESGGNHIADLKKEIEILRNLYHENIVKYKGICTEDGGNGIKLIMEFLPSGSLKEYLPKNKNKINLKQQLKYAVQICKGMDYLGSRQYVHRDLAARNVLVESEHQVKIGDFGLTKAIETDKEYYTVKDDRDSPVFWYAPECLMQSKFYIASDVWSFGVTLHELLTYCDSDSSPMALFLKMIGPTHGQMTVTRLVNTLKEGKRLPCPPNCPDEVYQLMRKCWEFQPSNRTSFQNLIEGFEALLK
Procedure, shortened: as §1

Sequence of JAK3 (P52333 795-1124): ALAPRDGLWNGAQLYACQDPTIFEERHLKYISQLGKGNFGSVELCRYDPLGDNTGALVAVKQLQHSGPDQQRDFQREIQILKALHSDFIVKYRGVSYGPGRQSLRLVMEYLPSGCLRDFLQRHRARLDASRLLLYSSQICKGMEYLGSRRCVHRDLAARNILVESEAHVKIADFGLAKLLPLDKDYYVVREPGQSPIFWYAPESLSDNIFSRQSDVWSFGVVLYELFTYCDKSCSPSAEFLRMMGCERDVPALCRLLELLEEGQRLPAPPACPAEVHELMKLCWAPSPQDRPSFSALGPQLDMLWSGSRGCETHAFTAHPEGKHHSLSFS

pIC50 (JAK3)	pIC50 (JAK2)	pIC50 (JAK1)	Compound
8.40	9.00	7.85	C[C@H](O)COc1nc(-c2cnn3ccccc23)nc(O[C@@H]2CCCN(C(=O)CO)C2)c1F [Example 90, (2S)-1-[(5-Fluoro-6-{[(3R)-1-glycoloylpiperidin-3-yl]oxy}-2-pyrazolo[1,5-a]pyridin-3-ylpyrimidin-4-yl)oxy]propan-2-ol]
8.30	8.70	6.94	COC[C@@H](C)Oc1nc(-c2cnn3ccccc23)nc(N[C@@H]2CCCN(c3cnc(C#N)cn3)C2)c1F [Example 91, 5-[(3R)-3-({5-Fluoro-6-[(1R)-2-methoxy-1-methylethoxy]-2-pyrazolo[1,5-a]pyridin-3-ylpyrimidin-4-yl}amino)piperidin-1-yl]pyrazine-2-carbonitrile]
8.40	9.00	7.92	CC(C)OC(=O)c1nc(-c2cnn3ccccc23)nc(N[C@@H]2CCCN(C(=O)CO)C2)c1F [Example 92, Isopropyl 5-fluoro-6-{[(3R)-1-glycoloylpiperidin-3-yl]amino}-2-pyrazolo[1,5-a]pyridin-3-ylpyrimidine-4-carboxylate]
8.22	8.52	7.64	COc1nc(-c2cnn3ccccc23)nc(N[C@@H]2CCCN(C(=O)CO)C2)c1C [Example 93, 2-{(3R)-3-[(6-Methoxy-5-methyl-2-pyrazolo[1,5-a]pyridin-3-ylpyrimidin-4-yl)amino]piperidin-1-yl}-2-oxoethanol]
8.15	9.00	8.15	COc1cc(N[C@@H]2CCCN(C(=O)CO)C2)nc(-c2cnn3ccccc23)n1 [Example 94, 2-{(3R)-3-[(6-Methoxy-2-pyrazolo[1,5-a]pyridin-3-ylpyrimidin-4-yl)amino]piperidin-1-yl}-2-oxoethanol]
8.70	9.00	8.22	COCCOc1cc(N[C@@H]2CCCN(C(=O)CO)C2)nc(-c2cnn3ccccc23)n1 [Example 96, 2-((3R)-3-{[6-(2-Methoxyethoxy)-2-pyrazolo[1,5-a]pyridin-3-ylpyrimidin-4-yl]amino}piperidin-1-yl)-2-oxoethanol]
9.00	9.00	8.70	COCCOc1cc(N[C@@H]2CCCN(C(=O)CC#N)C2)nc(-c2cnn3ccccc23)n1 [Example 97, 3-((3R)-3-{[6-(2-Methoxyethoxy)-2-pyrazolo[1,5-a]pyridin-3-ylpyrimidin-4-yl]amino}piperidin-1-yl)-3-oxopropanenitrile]
8.15	8.05	8.70	Cc1ccc(-c2cc(N[C@@H]3CCCN(C(=O)CO)C3)nc(-c3cnn4ccccc34)n2)cn1 [Example 99, 2-((3R)-3-{[6-(6-Methylpyridin-3-yl)-2-pyrazolo[1,5-a]pyridin-3-ylpyrimidin-4-yl]amino}piperidin-1-yl)-2-oxoethanol]
8.70	8.70	9.30	Cc1ccc(-c2cc(N[C@@H]3CCCN(C(=O)CC#N)C3)nc(-c3cnn4ccccc34)n2)cn1 [Example 100, 3-((3R)-3-{[6-(6-Methylpyridin-3-yl)-2-pyrazolo[1,5-a]pyridin-3-ylpyrimidin-4-yl]amino}piperidin-1-yl)-3-oxopropanenitrile]
9.00	9.00	8.70	Cc1cc(-c2cc(N[C@@H]3CCCN(C(=O)CO)C3)nc(-c3cnn4ccccc34)n2)cc(C)n1 [Example 101, 2-((3R)-3-{[6-(2,6-Dimethylpyridin-4-yl)-2-pyrazolo[1,5-a]pyridin-3-ylpyrimidin-4-yl]amino}piperidin-1-yl)-2-oxoethanol]
8.30	8.70	9.00	Cc1cc(-c2cc(N[C@@H]3CCCN(C(=O)CC#N)C3)nc(-c3cnn4ccccc34)n2)cc(C)n1 [Example 102, 3-((3R)-3-{[6-(2,6-Dimethylpyridin-4-yl)-2-pyrazolo[1,5-a]pyridin-3-ylpyrimidin-4-yl]amino}piperidin-1-yl)-3-oxopropanenitrile]
9.00	9.00	9.00	N#CCC(=O)N1CCC[C@@H](Nc2cc(OCCO)nc(-c3cnn4ccccc34)n2)C1 [Example 103, 3-((3R)-3-{[6-(2-Hydroxyethoxy)-2-pyrazolo[1,5-a]pyridin-3-ylpyrimidin-4-yl]amino}piperidin-1-yl)-3-oxopropanenitrile]
9.00	8.52	8.40	N#Cc1cnc(N2CCC[C@@H](Nc3cc(OCCO)nc(-c4cnn5ccccc45)n3)C2)cn1 [Example 104, 5-((3R)-3-{[6-(2-Hydroxyethoxy)-2-pyrazolo[1,5-a]pyridin-3-ylpyrimidin-4-yl]amino}piperidin-1-yl)pyrazine-2-carbonitrile]
8.30	8.30	8.70	O=C(CO)N1CCC[C@@H](Nc2cc(-c3cncc(O)c3)nc(-c3cnn4ccccc34)n2)C1 [Example 105, 5-(6-{[(3R)-1-Glycoloylpiperidin-3-yl]amino}-2-pyrazolo[1,5-a]pyridin-3-ylpyrimidin-4-yl)pyridin-3-ol]
9.00	9.00	9.00	N#CCC(=O)N1CCC[C@@H](Nc2cc(-c3cncc(O)c3)nc(-c3cnn4ccccc34)n2)C1 [Example 106, 3-((3R)-3-{[6-(5-Hydroxypyridin-3-yl)-2-pyrazolo[1,5-a]pyridin-3-ylpyrimidin-4-yl]amino}piperidin-1-yl)-3-oxopropanenitrile]

Compound	pIC50 (JAK3)	pIC50 (JAK2)	pIC50 (JAK1)
(5-{(3R)-3-[(5-fluoro-6-methoxy-2-pyrazolo[1,5-a]pyridin-3-ylpyrimidin-4-yl)amino]piperidin-1-yl}pyrazin-2-yl)methanol [Example 55]	7.48	7.92	6.77
[Trans-4-({6-[2-(dimethylamino)ethoxy]-5-fluoro-2-pyrazolo[1,5-a]pyridin-3-ylpyrimidin-4-yl}amino)cyclohexyl]acetonitrile [Example 10]	9.15	9.30	7.49
